Measured values from PubChem BioAssay (NCI).
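In this assay, cells in 96-well plates receive the compound at five concentrations for 48 hours. Endpoints are linearly interpolated between the surrounding concentrations. TGI: total growth inhibition.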

How the values were obtained:
Assay in all cases: NCI anticancer screen, dose series, 48 h
NCI-H522 lung = test system: NCI-H522 lung
SK-OV-3 ovarian = test system: SK-OV-3 ovarian
HCC-2998 colon = test system: HCC-2998 colon
OVCAR-4 ovarian = test system: OVCAR-4 ovarian
SK-MEL-5 melanoma = test system: SK-MEL-5 melanoma
IGROV1 ovarian = test system: IGROV1 ovarian
MDA-N = test system: MDA-N
MCF7 breast = test system: MCF7 breast
CAKI-1 renal = test system: CAKI-1 renal
RXF 393 renal = test system: RXF 393 renal
LOX IMVI melanoma = test system: LOX IMVI melanoma
KM12 colon = test system: KM12 colon
MDA-MB-435 = test system: MDA-MB-435
PC-3 prostate = test system: PC-3 prostate
786-0 renal = test system: 786-0 renal
CCRF-CEM leukemia = test system: CCRF-CEM leukemia
HS 578T breast = test system: HS 578T breast
TK-10 renal = test system: TK-10 renal
DU-145 prostate = test system: DU-145 prostate
M14 melanoma = test system: M14 melanoma
HCT-116 colon = test system: HCT-116 colon
OVCAR-3 ovarian = test system: OVCAR-3 ovarian
NCI/ADR-RES ovarian = test system: NCI/ADR-RES ovarian
RPMI-8226 leukemia = test system: RPMI-8226 leukemia
UACC-62 melanoma = test system: UACC-62 melanoma
UO-31 renal = test system: UO-31 renal
SR leukemia = test system: SR leukemia
HT29 colon = test system: HT29 colon
SK-MEL-28 melanoma = test system: SK-MEL-28 melanoma
HOP-62 NSCLC = test system: HOP-62 NSCLC
SF-268 CNS = test system: SF-268 CNS
MOLT-4 leukemia = test system: MOLT-4 leukemia
SNB-19 CNS = test system: SNB-19 CNS
T-47D breast = test system: T-47D breast
MDA-MB-231 breast = test system: MDA-MB-231 breast
SW-620 colon = test system: SW-620 colon
NCI-H23 lung = test system: NCI-H23 lung
K-562 leukemia = test system: K-562 leukemia
ACHN renal = test system: ACHN renal
HCT-15 colon = test system: HCT-15 colon
A549 NSCLC = test system: A549 NSCLC
OVCAR-8 ovarian = test system: OVCAR-8 ovarian
SN12C renal = test system: SN12C renal
EKVX NSCLC = test system: EKVX NSCLC
OVCAR-5 ovarian = test system: OVCAR-5 ovarian
UACC-257 melanoma = test system: UACC-257 melanoma
COLO 205 colon = test system: COLO 205 colon
SF-295 CNS = test system: SF-295 CNS
BT-549 breast = test system: BT-549 breast
NCI-H460 lung = test system: NCI-H460 lung
HL-60(TB) leukemia = test system: HL-60(TB) leukemia
SK-MEL-2 melanoma = test system: SK-MEL-2 melanoma
NCI-H226 lung = test system: NCI-H226 lung
SF-539 CNS = test system: SF-539 CNS
U251 CNS = test system: U251 CNS
MALME-3M melanoma = test system: MALME-3M melanoma
HOP-92 NSCLC = test system: HOP-92 NSCLC
A498 renal = test system: A498 renal
SNB-75 CNS = test system: SNB-75 CNS

`C=CCn1c(=O)c2ccccc2[n+]2c(C)c(C(=O)OCC)sc12` gave a TGI (NCI-H522 lung) greater than 100 µM, a TGI (SK-OV-3 ovarian) greater than 100 µM and a TGI (HCC-2998 colon) greater than 100 µM. The TGI (OVCAR-4 ovarian) was greater than 100 µM, the TGI (SK-MEL-5 melanoma) was greater than 100 µM and the TGI (IGROV1 ovarian) was greater than 100 µM. For the same compound, the TGI (MDA-N) was greater than 100 µM, the TGI (MCF7 breast) was greater than 100 µM and the TGI (CAKI-1 renal) was greater than 100 µM. It also gave a TGI (RXF 393 renal) greater than 100 µM, a TGI (LOX IMVI melanoma) greater than 100 µM and a TGI (KM12 colon) greater than 100 µM. The TGI (MDA-MB-435) was greater than 100 µM, the TGI (PC-3 prostate) was greater than 100 µM and the TGI (786-0 renal) was greater than 100 µM. The TGI (CCRF-CEM leukemia) was greater than 100 µM, the TGI (HS 578T breast) was greater than 100 µM and the TGI (TK-10 renal) was greater than 100 µM. For the same compound, the TGI (DU-145 prostate) was greater than 100 µM, the TGI (M14 melanoma) was greater than 100 µM and the TGI (HCT-116 colon) was greater than 100 µM. The TGI (OVCAR-3 ovarian) was greater than 100 µM, the TGI (NCI/ADR-RES ovarian) was greater than 100 µM and the TGI (RPMI-8226 leukemia) was greater than 100 µM. The TGI (UACC-62 melanoma) was greater than 100 µM, the TGI (UO-31 renal) was greater than 100 µM and the TGI (SR leukemia) was greater than 100 µM. For the same compound, the TGI (HT29 colon) was greater than 100 µM, the TGI (SK-MEL-28 melanoma) was greater than 100 µM and the TGI (HOP-62 NSCLC) was greater than 100 µM. The TGI (SF-268 CNS) was greater than 100 µM, the TGI (MOLT-4 leukemia) was greater than 100 µM and the TGI (SNB-19 CNS) was greater than 100 µM. It also gave a TGI (T-47D breast) greater than 100 µM, a TGI (MDA-MB-231 breast) greater than 100 µM and a TGI (SW-620 colon) greater than 100 µM. The TGI (NCI-H23 lung) was greater than 100 µM, the TGI (K-562 leukemia) was greater than 100 µM and the TGI (ACHN renal) was greater than 100 µM. The TGI (HCT-15 colon) was greater than 100 µM, the TGI (A549 NSCLC) was greater than 100 µM and the TGI (OVCAR-8 ovarian) was greater than 100 µM. For the same compound, the TGI (SN12C renal) was greater than 100 µM, the TGI (EKVX NSCLC) was greater than 100 µM and the TGI (OVCAR-5 ovarian) was greater than 100 µM. The TGI (UACC-257 melanoma) was greater than 100 µM, the TGI (COLO 205 colon) was greater than 100 µM and the TGI (SF-295 CNS) was greater than 100 µM. For the same compound, the TGI (BT-549 breast) was greater than 100 µM, the TGI (NCI-H460 lung) was greater than 100 µM and the TGI (HL-60(TB) leukemia) was greater than 100 µM. It also gave a TGI (SK-MEL-2 melanoma) greater than 100 µM, a TGI (NCI-H226 lung) greater than 100 µM and a TGI (SF-539 CNS) greater than 100 µM. The TGI (U251 CNS) was greater than 100 µM.
With `C=CCOC(=O)N1[C@H]2C#C/C=C\C#C[C@]3(O)C(=O)C[C@H](C)[C@]24O[C@]43C2=CC(=O)C=CC21OC` (stereo not given in full) the TGI (NCI-H522 lung) was 48.5 µM, the TGI (SK-OV-3 ovarian) was greater than 100 µM and the TGI (HCC-2998 colon) was 77.6 µM. It also gave a TGI (OVCAR-4 ovarian) of 84.2 µM, a TGI (IGROV1 ovarian) of 67.3 µM and a TGI (MDA-N) greater than 100 µM. For the same compound, the TGI (MCF7 breast) was greater than 100 µM, the TGI (CAKI-1 renal) was greater than 100 µM and the TGI (RXF 393 renal) was 47.7 µM. It also gave a TGI (KM12 colon) of 67.7 µM, a TGI (MDA-MB-435) greater than 100 µM and a TGI (PC-3 prostate) greater than 100 µM. It also gave a TGI (786-0 renal) of 38.7 µM, a TGI (CCRF-CEM leukemia) of 79.5 µM and a TGI (HS 578T breast) greater than 100 µM. It also gave a TGI (TK-10 renal) of 63.7 µM, a TGI (MALME-3M melanoma) greater than 100 µM and a TGI (DU-145 prostate) greater than 100 µM. The TGI (M14 melanoma) was greater than 100 µM, the TGI (HCT-116 colon) was 44.6 µM and the TGI (NCI/ADR-RES ovarian) was greater than 100 µM. The TGI (RPMI-8226 leukemia) was 81.5 µM, the TGI (UACC-62 melanoma) was greater than 100 µM and the TGI (UO-31 renal) was greater than 100 µM. The TGI (SR leukemia) was 29.9 µM, the TGI (HT29 colon) was 75.2 µM and the TGI (SK-MEL-28 melanoma) was greater than 100 µM. The TGI (HOP-62 NSCLC) was greater than 100 µM, the TGI (SF-268 CNS) was greater than 100 µM and the TGI (MOLT-4 leukemia) was 52.9 µM. For the same compound, the TGI (SNB-19 CNS) was greater than 100 µM, the TGI (HOP-92 NSCLC) was greater than 100 µM and the TGI (T-47D breast) was greater than 100 µM. The TGI (MDA-MB-231 breast) was 85.9 µM, the TGI (SW-620 colon) was greater than 100 µM and the TGI (NCI-H23 lung) was greater than 100 µM. For the same compound, the TGI (K-562 leukemia) was greater than 100 µM, the TGI (ACHN renal) was 63.6 µM and the TGI (HCT-15 colon) was greater than 100 µM. It also gave a TGI (A549 NSCLC) greater than 100 µM, a TGI (A498 renal) of 38 µM and a TGI (OVCAR-8 ovarian) of 47.9 µM. It also gave a TGI (SN12C renal) of 67.4 µM, a TGI (EKVX NSCLC) greater than 100 µM and a TGI (OVCAR-5 ovarian) greater than 100 µM. For the same compound, the TGI (UACC-257 melanoma) was 59 µM, the TGI (COLO 205 colon) was 38.8 µM and the TGI (SF-295 CNS) was greater than 100 µM. The TGI (NCI-H460 lung) was 47.8 µM, the TGI (HL-60(TB) leukemia) was 92.8 µM and the TGI (SK-MEL-2 melanoma) was 66.5 µM. It also gave a TGI (NCI-H226 lung) greater than 100 µM, a TGI (SF-539 CNS) of 45.8 µM and a TGI (SNB-75 CNS) of 82.5 µM. It also gave a TGI (U251 CNS) greater than 100 µM.
